Assay [1] deals with NGF production in the L-M cells. In words: Enhancing activity for NGF production, Example 13 method (20 hours culture after addition). It counts as cell-based, murine. The settings on record: for activity at 3.125 µM: added amount 3.125 μM; for activity at 6.25 µM: added amount 6.25 μM; for activity at 12.5 µM: added amount 12.5 μM; for Enhancement of NGF production (in words): L-M cells. How it is done:
(§1) L-M cells (ATCC CCL-1.2) from murine fibroblasts were suspended in an M199 medium (manufactured by ICN) containing 0.5% bactopeptone (manufactured by Gibco BRL) so as to have a concentration of 1.5×10^5 cells/mi. The suspension was put in a 96-well plate in an amount of 0.1 ml each well, and the cells were aseptically cultured. After culturing the cells for 3 days, the medium was removed therefrom, and exchanged with an M199 medium containing 0.5% bovine serum albumin (manufactured by Sigma). Caffeic acid (manufactured by Sigma, dimethyl suif oxide (DMSO) solution), a substance known to have enhancing activity for NGF production, was added to each well containing the cells, so as to have a final concentration of 0, 50, 100 or 200 μM, and the cells were cultured for 24 hours. One having a caffeic acid concentration of 0 μM was used as a negative control. In addition, the final concentration of DM50 in each well was adjusted to 0.1%. After the termination of the culture, the NGF concentration in the culture medium was determined by an enzyme immunoassay method (NGF Emax Immuno Assay System, manufactured by Promega). The degree of the enhancement for NGF production of caffeic acid at each added amount was expressed in percentage as the enhancement ratio (%) on the basis of the NGF concentration in the cell culture medium at each added amount, when the NGF concentration in the cell culture medium of the negative control was defined as 100%. The experiment was carried out twice, and an average value was taken. It was shown that the enhancing activity for NGF production of caffeic acid could be assayed by this method.
The enhancing activity for NGF production of each of the compounds (5) to (12), (17) to (22), (24) and (25) prepared in Preparation Examples 2 to 9 and Examples 1 to 8, and the compound (23) (rosemarinic acid; manufactured by Funakoshi), or caffeic acid (CA), 4-methylcatechol (4MC) and epinephrine (EN), substances conventionally known to enhance NGF production was assayed in the same manner as in Reference Example 1. In addition, the time period for cell culture after the addition of the compound was 20 hours. A negative control was set for every test of each compound. Each experiment was carried out twice, and an average value was taken.
(1) L-M cells (ATCC CCL-1.2) from murine fibroblasts were suspended in an M199 medium (manufactured by ICN) containing 0.5% bactopeptone (manufactured by Gibco) so as to have a concentration of 1.5×10^5 cells/ml. The suspension was put in a 96-well plate in an amount of 0.1 ml each well, and the cells were aseptically cultured. After culturing the cells for 3 days, the medium was removed therefrom, and exchanged with an M199 medium containing 0.5% bovine serum albumin (manufactured by Sigma). Thereto was added an yellow pigment (powder Sun Yellow No. 2, manufactured by San-Ei Gen F.F.I.) obtained by extraction from flower of Carthamus tinctorius LINNE) as the sample so as to have a final concentration of 0, 1.25, 2.5 or 5 mg/ml, and the cells were cultured for 20 hours. After the termination of the culture, the NGF concentration in the culture medium was assayed by an enzyme immunoassay method (NGF Emax Immuno Assay System, manufactured by Promega). The degree of the enhancement for NGF production was expressed in the percentage as an enhancement ratio (%), when the NGF concentration in the cell culture medium with no addition of the sample as the negative control was defined as 100%. The experiment was carried out twice, and an average value was taken. […]
The enhancing activity for NGF production of the purified safflomin A thus obtained was determined in the same manner as in Example 13. The purified safflomin A was added so as to have a fmal concentration of 0 or 2.5 mg/ml. […]

The test system is the same in assay [2]. In words: Enhancing activity for NGF production, Reference Example 1 method (24 hours culture, NGF enzyme immunoassay of culture medium). The settings on record: for Enhancement of NGF production (in words): L-M cells; for Enhancement Ratio (%): negative control = 100%. It counts as cell-based, murine. The protocol: as §1
The enhancing activity for NGF production of the compound (13) (manufactured by Funakoshi) was assayed in the same manner as in Reference Example 1. The compound (13) was added so as to have a final concentration of 0, 0.5, 1, 2, 5, 10, 20 or 50 μM.
The enhancing activity for NGF production of a compound (14) (manufactured by Sigma) was assayed in the same manner as in Reference Example 1. The compound (14) was added so as to have a final concentration of 0, 50, 100 or 200 μM.
The enhancing activity for NGF production of a compound (15) (manufactured by Sigma) was assayed in the same manner as in Reference Example 1. The compound (15) was added so as to have a final concentration of 0, 12.5, 25 or 50 μM.
The enhancing activity for NGF production of a compound (16) (manufactured by Wako Pure Chemical Industries) was assayed in the same manner as in Reference Example 1. The compound (16) was added so as to have a final concentration of 0, 25, 50 or 100 μM.

Setting [3] is: Mus musculus, negative control = 100%, read-out: Enhancement Ratio (%).
Setting [4] is: Mus musculus, added amount 25 μM, negative control = 100%, read-out: Enhancement Ratio (%).
The mark [5] stands for this setting: Mus musculus, added amount 50 μM, negative control = 100%, read-out: Enhancement Ratio (%).
Setting [6] is: Mus musculus, added amount 100 μM, negative control = 100%, read-out: Enhancement Ratio (%).
The mark [7] stands for this setting: added amount 100 μM, negative control = 100%.
Setting [8] is: Mus musculus, added amount 200 μM, negative control = 100%, read-out: Enhancement Ratio (%).

Here are results for 23 molecules from US7268160B2, “Remedies” (Takara Bio, Inc., priority 2000, dated 2007).

As to `O=C(/C=C/c1ccc(O)c(O)c1)C12CC3CC(CC(C3)C1)C2` [Compound (9), 1-Adamantyl-3-(3,4-dihydroxyphenyl)-2-propen-1-one], in assay [1] (setting [3]), the activity at 3.125 µM stood at 206%, the activity at 6.25 µM was determined as 550% and the activity at 12.5 µM was found to be 810%.

On to `O=C(/C=C/c1ccc(O)c(O)c1)c1ccccc1O` [Compound (21), 3,4,2′-Trihydroxychalcone], for which the activity at 25 µM in assay [1] (setting [4]) was determined as 223%. The activity at 50 µM in assay [1] (setting [5]) is 229%. For the same molecule, in assay [1] (setting [6]), the activity at 100 µM was 502%.

Turning to `O=C(CCc1ccc(O)c(O)c1)c1ccc(O)cc1O` [Compound (10), Dihydrobutein], in assay [1] (setting [3]), the activity at 6.25 µM was 174% and the activity at 12.5 µM is 333%. For the same molecule, the activity at 25 µM in assay [1] (setting [4]) stood at 839%.

Consider `O=C(/C=C/c1ccc(O)c(O)c1)c1cc(O)cc(O)c1` [Compound (20), 3,4,3′,5′-Tetrahydroxychalcone], for which the activity at 12.5 µM in assay [1] (setting [3]) worked out at 346%. Also, the activity at 25 µM in assay [1] (setting [4]) stood at 482%. For the same molecule, the activity at 50 µM in assay [1] (setting [5]) was 692%.

With `O=C(CC(O)Cc1ccc(O)c(O)c1)C12CC3CC(CC(C3)C1)C2` (stereo not drawn) [Compound (12), 1-Adamantyl-3-hydroxy-4-(3,4-dihyroxyphenyl)-butan-1-one], in assay [1] (setting [3]), the activity at 3.125 µM worked out at 108%, the activity at 6.25 µM was determined as 364% and the activity at 12.5 µM was found to be 966%. In addition, the activity at 25 µM in assay [1] (setting [4]) was 908%.

Xanthoangelol [Compound (24)]: the “Enhancement Ratio (%)” value came out at 126.1% in assay [1] (added amount 25 μM, negative control = 100%); 202.6% in assay [1] (added amount 50 μM, negative control = 100%); 265.7% in assay [1] (setting [7]).

For `O=C(/C=C/c1ccc(O)c(O)c1)c1cc(O)ccc1O` [Compound (18), 3,4,2′,5′-Tetrahydroxychalcone], in assay [1] (setting [3]), the activity at 6.25 µM came to 471% and the activity at 12.5 µM came to 476%. In addition, the activity at 25 µM in assay [1] (setting [4]) amounted to 874%.

As for `CC(=O)Oc1ccc(C(=O)/C=C/c2ccc(OC(C)=O)c(OC(C)=O)c2)c(OC(C)=O)c1` [Compound (5), 3,4,2′,4′-Tetraacetylbutein], the activity at 6.25 µM in assay [1] (setting [3]) was 684%.

Consider `O=C(/C=C/c1ccc(O)c(O)c1)c1ccc(Cl)cc1Cl` [Compound (6), 3,4-Dihydroxy-2′,4′-dichloro chalcone], for which, in assay [1] (setting [3]), the activity at 6.25 µM is 763% and the activity at 12.5 µM is 864%.

Consider `O=C(/C=C/c1ccc(O)c(O)c1)c1ccc(O)c(O)c1` [Compound (19), 3,4,3′,4′-Tetrahydroxychalcone], for which the activity at 12.5 µM in assay [1] (setting [3]) came out at 269%. In assay [1] (setting [4]), the activity at 25 µM is 312%. The activity at 50 µM in assay [1] (setting [5]) amounted to 844%.

Regarding `COc1ccc(C(=O)/C=C/c2ccc(O)c(O)c2)c(OC)c1` [Compound (7), 3,4-Dihydroxy-2′,4′-dimethoxy chalcone], in assay [1] (setting [3]), the activity at 6.25 µM turned out to be 359% and the activity at 12.5 µM worked out at 410%. Also, the activity at 25 µM in assay [1] (setting [4]) is 899%.

`COc1cc(O)c(CC=C(C)C)c(O)c1C(=O)/C=C/c1ccc(O)cc1` [xanthohumol, Xanthohumol]: in assay [1], the “Enhancement of NGF production (in words)” value was “enhanced NGF production in the L-M cells in a concentration-dependent manner”. Besides, the activity at 15.6 µM in assay [1] (Mus musculus, added amount 15.6 μM, negative control = 100%, read-out: Enhancement Ratio (%)) was 160%. Further, the activity at 31.3 µM in assay [1] (Mus musculus, added amount 31.3 μM, negative control = 100%, read-out: Enhancement Ratio (%)) turned out to be 212%. In assay [1] (Mus musculus, added amount 62.5 μM, negative control = 100%, read-out: Enhancement Ratio (%)), the activity at 62.5 µM came out at 473%. In addition, the activity at 125 µM in assay [1] (Mus musculus, added amount 125 μM, negative control = 100%, read-out: Enhancement Ratio (%)) was determined as 897%.

`O=C(C/C=C/c1ccc(O)c(O)c1)C12CC3CC(CC(C3)C1)C2` [Compound (11), 1-Adamantyl-4-(3,4-dihydroxyphenyl)-3-buten-1-one]: the activity at 0.781 µM in assay [1] (Mus musculus, added amount 0.781 μM, negative control = 100%, read-out: Enhancement Ratio (%)) was determined as 775%. The activity at 1.563 µM in assay [1] (Mus musculus, added amount 1.563 μM, negative control = 100%, read-out: Enhancement Ratio (%)) turned out to be 866%.

As for `CC(=O)C=Cc1ccc(O)c(O)c1` [Compound (8), 4-(3,4-Dihydroxyphenyl)-3-buten-2-one], the activity at 50 µM in assay [1] (setting [5]) is 375%. In assay [1] (setting [6]), the activity at 100 µM worked out at 676%.

For the molecule Isoliquiritigenin [Compound (14)], the “Enhancement of NGF production (in words)” value in assay [2] is “enhanced NGF production in the L-M cells in a concentration-dependent manner”. The “Enhancement Ratio (%)” value in assay [2] (added amount 50 μM) is reported as 310%; in assay [2] (added amount 100 μM) it was 550%; in assay [2] (added amount 200 μM), 1884%.

On to α-Hydroxybutein [Compound (25)], for which the “Enhancement Ratio (%)” value in assay [1] (added amount 31.25 μM, negative control = 100%) was 160.6%; in assay [1] (added amount 62.5 μM, negative control = 100%) it was 183.6%; in assay [1] (added amount 125 μM, negative control = 100%), 273.6%; in assay [1] (added amount 250 μM, negative control = 100%) it was 495.3%.

In the case of `O=C(/C=C/c1ccc(O)c(O)c1)c1ccc(O)c(O)c1O` [Compound (22), 3,4,2′,3′,4′-Pentahydroxy chalcone], the activity at 50 µM in assay [1] (setting [5]) came to 124%. In addition, the activity at 100 µM in assay [1] (setting [6]) turned out to be 130%. The activity at 200 µM in assay [1] (setting [8]) came to 242%.

Turning to `Cc1ccc(O)c(O)c1` [Compound 4MC, 4-methylcatechol, reference compound], the activity at 12.5 µM in assay [1] (setting [3]) was 143%. In assay [1] (setting [4]), the activity at 25 µM worked out at 313%.

As to `CNC[C@H](O)c1ccc(O)c(O)c1` [EN, epinephrine, reference compound], the activity at 50 µM in assay [1] (setting [5]) stood at 137%. In addition, the activity at 100 µM in assay [1] (setting [6]) amounted to 218%. The activity at 200 µM in assay [1] (setting [8]) was found to be 255%.

With `O=C(/C=C/c1ccc(O)c(O)c1)OCCc1ccccc1` [Compound (15), Caffeic acid phenylethylester], the “Enhancement of NGF production (in words)” value in assay [2] is on record as “enhanced NGF production in the L-M cells in a concentration-dependent manner”. Also, the “Enhancement Ratio (%)” value in assay [2] (added amount 12.5 μM) is listed as 236%; in assay [2] (added amount 25 μM), 263%; in assay [2] (added amount 50 μM) it was 320%.

For the molecule Rosmarinic acid [Compound (23)], the “Enhancement Ratio (%)” value was determined as 110.9% in assay [1] (setting [7]) and 131.1% in assay [1] (added amount 200 μM, negative control = 100%).

Regarding Safflomin A, the “Enhancement of NGF production (in words)” value in assay [1] was “enhanced NGF production of the L-M cells”. Also, the “Enhancement Ratio (%)” value in assay [1] (added amount 2.5 mg/ml, negative control = 100%) is reported as 130.7%.

Turning to `O=C(/C=C/c1cc(O)c(O)c(O)c1)c1ccc(O)cc1O` [Compound (17), 3,4,5,2′,4′-Pentahydroxychalcone], the activity at 12.5 µM in assay [1] (setting [3]) was 195%. Further, in assay [1] (setting [4]), the activity at 25 µM worked out at 598%.
